The values that follow come from US7517874B2 (priority 2007, dated 2009).

Read-outs that look alike come from different tables or passages of the source.

Experiment [1] concerns the target human CB1 receptor (hCB1) (Homo sapiens, UniProt P21554). The experiment can be described thus: cell-based. The conditions noted are these: for +/− HCB1: agonist or inverse agonist at hCB1. It counts as cell-based. Put shortly:
(§1)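 First, cells in IBMX-containing HEPES-buffered HBSS are raised to elevated cAMP with 2-8 μM NKH-477 for 30 min. Data are normalised to the forskolin and forskolin + 1 μM CP55,940 controls.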

For another experiment, the target named is T1, rat CB2 receptor (rCB2) (Rattus norvegicus, UniProt Q9QZN9).
T1 sequence (Q9QZN9 1-360): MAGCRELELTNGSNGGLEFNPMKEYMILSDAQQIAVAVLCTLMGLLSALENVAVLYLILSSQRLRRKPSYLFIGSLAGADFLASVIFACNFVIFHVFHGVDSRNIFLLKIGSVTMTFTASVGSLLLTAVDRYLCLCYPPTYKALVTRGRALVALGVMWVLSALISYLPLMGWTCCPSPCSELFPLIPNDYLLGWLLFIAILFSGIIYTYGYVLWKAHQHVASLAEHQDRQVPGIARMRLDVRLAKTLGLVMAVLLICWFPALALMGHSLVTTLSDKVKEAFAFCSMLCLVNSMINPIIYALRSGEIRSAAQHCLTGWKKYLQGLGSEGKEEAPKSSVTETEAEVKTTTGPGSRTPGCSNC
The experiment can be described thus: cell-based. It counts as cell-based. The conditions noted are these: for +/− RCB2: agonist or inverse agonist at rCB2. Put shortly: as §1

Setting [2] is: groups >100 nM-10 μM and >10 μM, cAMP, CHO-K1 hCB1, read-out: EC50 HCB1.

human CB1 receptor (hCB1), sequence (P21554 whole entry): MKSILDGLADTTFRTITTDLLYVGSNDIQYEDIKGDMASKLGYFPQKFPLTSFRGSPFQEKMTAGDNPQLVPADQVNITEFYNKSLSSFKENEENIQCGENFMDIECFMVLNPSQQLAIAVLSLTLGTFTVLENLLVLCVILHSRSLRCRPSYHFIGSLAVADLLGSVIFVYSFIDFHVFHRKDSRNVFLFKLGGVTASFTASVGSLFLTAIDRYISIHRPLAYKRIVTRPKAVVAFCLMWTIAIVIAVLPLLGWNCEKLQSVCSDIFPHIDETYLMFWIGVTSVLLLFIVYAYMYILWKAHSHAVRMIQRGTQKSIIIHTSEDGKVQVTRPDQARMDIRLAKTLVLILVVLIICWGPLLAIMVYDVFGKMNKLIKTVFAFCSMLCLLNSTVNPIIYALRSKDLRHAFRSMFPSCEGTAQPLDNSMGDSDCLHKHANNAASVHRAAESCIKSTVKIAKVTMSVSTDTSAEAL

Turning to `CNC(=O)[C@H](CC(C)C)NC(=O)c1nc(-c2ccc(F)c(F)c2)n2c1CN(C)CCC2` [Compound 535, (S)-3-(3,4-difluorophenyl)-8-methyl-N-(4-methyl-1-(methylamino)-1-oxopentan-2-yl)-6,7,8,9-tetrahydro-5H-imidazo[1,5-a][1,4]diazepine-1-carboxamide], in experiment [1], the EC50 was above 10000 nM. In addition, the “+/− RCB2” value on rat CB2 receptor (rCB2) is on record as “+”.
For `CNC(=O)[C@@H](NC(=O)c1nc(-c2cccnc2)n2c1CN(C)CCC2)C(C)(C)C` [Compound 348, (S)-N-(3,3-dimethyl-1-(methylamino)-1-oxobutan-2-yl)-8-methyl-3-(pyridin-3-yl)-6,7,8,9-tetrahydro-5H-imidazo[1,5-a][1,4]diazepine-1-carboxamide] the same measures were above 10000 nM and “+”.
Take `CNC(=O)[C@@H](NC(=O)c1nc(CCc2ccsc2)n2c1CN(C)CCC2)C(C)(C)C` [Compound 495, (S)-N-(3,3-dimethyl-1-(methylamino)-1-oxobutan-2-yl)-8-methyl-3-(2-(thiophen-3-yl)ethyl)-6,7,8,9-tetrahydro-5H-imidazo[1,5-a][1,4]diazepine-1-carboxamide]: the EC50 in experiment [1] was above 10000 nM. The “+/− RCB2” value on rat CB2 receptor (rCB2) was “+”.
On to `CNC(=O)[C@@H](NC(=O)c1nc(-c2ccc(S(=O)(=O)N(C)C)cc2)n2c1CN(C)CCC2)C(C)(C)C` [Compound 410, (S)-N-(3,3-dimethyl-1-(methylamino)-1-oxobutan-2-yl)-3-(4-(N,N-dimethylsulfamoyl)phenyl)-8-methyl-6,7,8,9-tetrahydro-5H-imidazo[1,5-a][1,4]diazepine-1-carboxamide], for which the EC50 (in experiment [1]; on rat CB2 receptor (rCB2)) was above 10000 nM throughout.
For `CNC(=O)[C@@H](NC(=O)c1nc(-c2cccc(C#N)c2)n2c1CN(C)CC2)C(C)(C)C` [Compound 260, (S)-3-(3-cyanophenyl)-N-(3,3-dimethyl-1-(methylamino)-1-oxobutan-2-yl)-7-methyl-5,6,7,8-tetrahydroimidazo[1,5-a]pyrazine-1-carboxamide], the EC50 in experiment [1] is above 10000 nM. Besides, the “+/− RCB2” value on rat CB2 receptor (rCB2) is on record as “−”.
Take `Cc1nnc(C)n1C1CCN(C(=O)c2nc(-c3ccc(Cl)cc3F)n3c2CN(C)CC3)CC1` [Compound 223, (3-(4-chloro-2-fluorophenyl)-7-methyl-5,6,7,8-tetrahydroimidazo[1,5-a]pyrazin-1-yl)(4-(3,5-dimethyl-4H-1,2,4-triazol-4-yl)piperidin-1-yl)methanone]: the EC50 (in experiment [1]; on rat CB2 receptor (rCB2)) was above 10000 nM each time.
Regarding `O=C(NCC1CCOCC1)c1nc(-c2ccccc2)n2c1CN(CCO)CC2` [Compound 169, 7-(2-hydroxyethyl)-3-phenyl-N-((tetrahydro-2H-pyran-4-yl)methyl)-5,6,7,8-tetrahydroimidazo[1,5-a]pyrazine-1-carboxamide], the EC50 in experiment [1] (setting [2]) was above 10000 nM. Further, on rat CB2 receptor (rCB2), the “+/− RCB2” value is given as “−”.
Take `C=C(C)c1nc(C(=O)N[C@H](C(=O)NC)C(C)(C)C)c2n1CCCN(C)C2` [Compound 441, (S)-N-(3,3-dimethyl-1-(methylamino)-1-oxobutan-2-yl)-8-methyl-3-(prop-1-en-2-yl)-6,7,8,9-tetrahydro-5H-imidazo[1,5-a][1,4]diazepine-1-carboxamide]: the “+/− HCB1” value in experiment [1] is recorded as “+”. Besides, the “+/− RCB2” value at rat CB2 receptor (rCB2) is “+”.
Take `CNC(=O)[C@@H](NC(=O)c1nc(-c2ccccc2Cl)n2c1CNCC2)C(C)(C)C` [Compound 10, (S)-3-(2-chlorophenyl)-N-(3,3-dimethyl-1-(methylamino)-1-oxobutan-2-yl)-5,6,7,8-tetrahydroimidazo[1,5-a]pyrazine-1-carboxamide]: the EC50 in experiment [1] was above 10000 nM. Moreover, the “+/− RCB2” value on rat CB2 receptor (rCB2) is “+”.
For `CNC(=O)[C@H](CC(C)C)NC(=O)c1nc(-c2cc(Cl)c(F)cc2F)n2c1CN(C)CCC2` [Compound 539, (S)-3-(5-chloro-2,4-difluorophenyl)-8-methyl-N-(4-methyl-1-(methylamino)-1-oxopentan-2-yl)-6,7,8,9-tetrahydro-5H-imidazo[1,5-a][1,4]diazepine-1-carboxamide], in experiment [1], the “+/− HCB1” value is “+”. For the same compound, at rat CB2 receptor (rCB2), the “+/− RCB2” value is listed as “+”.
Compound `CC(C)(C)CNC(=O)c1nc(-c2ccccc2)n2c1CN(S(=O)(=O)c1ccccc1)CC2` [Compound 104, N-neopentyl-3-phenyl-7-(phenylsulfonyl)-5,6,7,8-tetrahydroimidazo[1,5-a]pyrazine-1-carboxamide] displayed an EC50 in experiment [1] above 10000 nM. Also, at rat CB2 receptor (rCB2), the “+/− RCB2” value is “−”.
In the case of `O=C(NCC1CCOCC1)c1nc(-c2ccccc2)n2c1CNCC2` [Compound 46, 3-phenyl-N-((tetrahydro-2H-pyran-4-yl)methyl)-5,6,7,8-tetrahydroimidazo[1,5-a]pyrazine-1-carboxamide], the EC50 in experiment [1] (setting [2]) is above 10000 nM. For the same compound, at rat CB2 receptor (rCB2), the “+/− RCB2” value is recorded as “−”.
Consider `CNC(=O)[C@@H](NC(=O)c1nc(-c2ccccc2)n2c1CN(C(C)C)CCC2)C(C)(C)C` [Compound 319, (S)-N-(3,3-dimethyl-1-(methylamino)-1-oxobutan-2-yl)-8-isopropyl-3-phenyl-6,7,8,9-tetrahydro-5H-imidazo[1,5-a][1,4]diazepine-1-carboxamide], for which the EC50 (in experiment [1]; on rat CB2 receptor (rCB2)) was above 10000 nM throughout.
As for `CNC(=O)[C@@H](NC(=O)c1nc(C2=CCCC2)n2c1CN(C)CCC2)C(C)(C)C` [Compound 456], the concentration for a half-maximal effect (EC50) in experiment [1] was above 10000 nM. Besides, the “+/− RCB2” value at rat CB2 receptor (rCB2) is given as “+”.
Regarding `CNC(=O)[C@@H](NC(=O)c1nc(-c2ccccc2F)n2c1CN(C)CC2)C(C)(C)C` [Compound 258, (S)-N-(3,3-dimethyl-1-(methylamino)-1-oxobutan-2-yl)-3-(2-fluorophenyl)-7-methyl-5,6,7,8-tetrahydroimidazo[1,5-a]pyrazine-1-carboxamide], the EC50 (in experiment [1]; on rat CB2 receptor (rCB2)) was above 10000 nM each time.
`CNC(=O)[C@@H](NC(=O)c1nc(-c2cc(F)cc(F)c2)n2c1CN(C)CC2)C(C)(C)C` [Compound 262, (S)-3-(3,5-difluorophenyl)-N-(3,3-dimethyl-1-(methylamino)-1-oxobutan-2-yl)-7-methyl-5,6,7,8-tetrahydroimidazo[1,5-a]pyrazine-1-carboxamide] had an EC50 in experiment [1] above 10000 nM. Also, the “+/− RCB2” value at rat CB2 receptor (rCB2) was “+”.
For `CNC(=O)[C@@H](NC(=O)c1nc(-c2cc(F)c(OC)cc2F)n2c1CN(C)CCC2)C(C)(C)C` [Compound 424, (S)-3-(2,5-difluoro-4-methoxyphenyl)-N-(3,3-dimethyl-1-(methylamino)-1-oxobutan-2-yl)-8-methyl-6,7,8,9-tetrahydro-5H-imidazo[1,5-a][1,4]diazepine-1-carboxamide], in experiment [1], the concentration giving a half-maximal response (EC50) was above 10000 nM. Moreover, on rat CB2 receptor (rCB2), the “+/− RCB2” value was “+”.
Regarding `CN1CCCn2c(-c3ccccc3)nc(C(=O)Nc3nc(C(C)(C)C)cs3)c2C1` [Compound 596, N-(4-tert-butylthiazol-2-yl)-8-methyl-3-phenyl-6,7,8,9-tetrahydro-5H-imidazo[1,5-a][1,4]diazepine-1-carboxamide], the EC50 was above 10000 nM in experiment [1] (setting [2]); above 10000 nM at rat CB2 receptor (rCB2) (groups >100 nM-10 μM and >10 μM, cAMP, CHO-K1 rCB2, read-out: EC50 RCB2).
Take `C/C=C/c1nc(C(=O)N[C@H](C(=O)NC)C(C)(C)C)c2n1CCN(C)C2` [Compound 243, (S,E)-N-(3,3-dimethyl-1-(methylamino)-1-oxobutan-2-yl)-7-methyl-3-(prop-1-enyl)-5,6,7,8-tetrahydroimidazo[1,5-a]pyrazine-1-carboxamide]: the EC50 in experiment [1] was above 10000 nM. For the same compound, on rat CB2 receptor (rCB2), the “+/− RCB2” value is reported as “+”.
`CNC(=O)C(NC(=O)c1nc(-c2ccccc2)n2c1CNCCC2)C(C)(C)F` (stereo not shown) [Compound 604, N-(3-fluoro-3-methyl-1-(methylamino)-1-oxobutan-2-yl)-3-phenyl-6,7,8,9-tetrahydro-5H-imidazo[1,5-a][1,4]diazepine-1-carboxamide]: in experiment [1], the EC50 was above 10000 nM. Also, on rat CB2 receptor (rCB2), the “+/− RCB2” value is “+”.
In experiment [1], `CNC(=O)[C@@H](NC(=O)c1nc(-c2cc(Cl)ccc2OC)n2c1CN(C)CCC2)C(C)(C)C` [Compound 327, (S)-3-(5-chloro-2-methoxyphenyl)-N-(3,3-dimethyl-1-(methylamino)-1-oxobutan-2-yl)-8-methyl-6,7,8,9-tetrahydro-5H-imidazo[1,5-a][1,4]diazepine-1-carboxamide] had an EC50 above 10000 nM. Also, the “+/− RCB2” value on rat CB2 receptor (rCB2) is “+”.
On to `CNC(=O)[C@@H](NC(=O)c1nc(-c2ccc(OC)c(F)c2)n2c1CN(C)CCC2)C(C)(C)C` [Compound 404, (S)-N-(3,3-dimethyl-1-(methylamino)-1-oxobutan-2-yl)-3-(3-fluoro-4-methoxyphenyl)-8-methyl-6,7,8,9-tetrahydro-5H-imidazo[1,5-a][1,4]diazepine-1-carboxamide], for which the EC50 (in experiment [1]; on rat CB2 receptor (rCB2)) was above 10000 nM each time.
Regarding `CN1CCCn2c(-c3ccc(F)c(Cl)c3)nc(C(=O)N[C@@H](CC(C)(C)C)C(N)=O)c2C1` [Compound 587, (S)-N-(1-amino-4,4-dimethyl-1-oxopentan-2-yl)-3-(3-chloro-4-fluorophenyl)-8-methyl-6,7,8,9-tetrahydro-5H-imidazo[1,5-a][1,4]diazepine-1-carboxamide], in experiment [1], the “+/− HCB1” value is “+”. In addition, the “+/− RCB2” value at rat CB2 receptor (rCB2) is reported as “+”.
